From ChEMBL document CHEMBL1201862, “PubChem BioAssay data set” (2004)
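Values below derive from 48-hour exposures of cells grown in 96-well plates, with endpoints linearly interpolated between the two concentrations bracketing the appropriate inhibition level. Here, GI50 denotes the concentration required for 50% inhibition of growth.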 The source made the active and inactive calls. Cut-off read from the data, not from the text of the source: active = GI50 up to about 1.1 µM and inactive = higher.

What was measured:
Experiment in all cases: NCI anticancer screen, dose series, 48 h
Hs-578T = system: Hs-578T
SR = system: SR
OVCAR-5 = system: OVCAR-5
SW-620 = system: SW-620
NCI/ADR-RES = system: NCI/ADR-RES
MDA-N = system: MDA-N
SK-MEL-28 = system: SK-MEL-28
NCI-H226 = system: NCI-H226
COLO 205 = system: COLO 205
EKVX = system: EKVX
K562 = system: K562
MDA-MB-231 = system: MDA-MB-231
HOP-92 = system: HOP-92
MCF7 = system: MCF7
SF-539 = system: SF-539
UO-31 = system: UO-31
TK-10 = system: TK-10
A549 = system: A549
ACHN = system: ACHN
PC-3 = system: PC-3

Measured: GI50

O=C(O)CSc1ccccc1C(=O)O
inactive: Hs-578T > 100 µM | SR > 100 µM | OVCAR-5 > 100 µM | SW-620 > 100 µM | NCI/ADR-RES > 100 µM | MDA-N > 100 µM | SK-MEL-28 > 100 µM | NCI-H226 99.1 µM | COLO 205 > 100 µM | EKVX > 100 µM | K562 > 100 µM | MDA-MB-231 > 100 µM | HOP-92 > 100 µM | MCF7 > 100 µM | SF-539 > 100 µM | UO-31 > 100 µM | TK-10 22.8 µM | A549 > 100 µM | ACHN > 100 µM | PC-3 > 100 µM

CC(=O)OCc1ccc(O)c(C=O)c1
inactive: Hs-578T > 100 µM | SR 60.3 µM | OVCAR-5 > 100 µM | SW-620 > 100 µM | NCI/ADR-RES > 100 µM | MDA-N 64.6 µM | SK-MEL-28 > 100 µM | NCI-H226 > 100 µM | COLO 205 > 100 µM | EKVX 28.4 µM | K562 73.6 µM | MDA-MB-231 > 100 µM | HOP-92 43.3 µM | MCF7 37.9 µM | SF-539 > 100 µM | UO-31 56.8 µM | TK-10 > 100 µM | A549 > 100 µM | ACHN > 100 µM | PC-3 88.9 µM
